Consider 17 compounds from ChEMBL document CHEMBL1147749, “Aromatic sulfide inhibitors of histone deacetylase based on arylsulfinyl-2,4-hexadienoic acid hydroxyamides” (J Med Chem, 2006).

pIC50: −log10 of the molar value. A value given as a limit tells only on which side of the number the result lay.

One test deals with SUD4. Put plainly: Inhibition of human lymphoma SUD4 cell viability. In kind it is functional, cell-based. The note with it: SU-DHL-4.
The next test concerns HCT-116. Description: Inhibition of human colorectal cancer HCT116 cell viability. In kind it is functional, cell-based.
Another test has as its system MCF7. Put plainly: Inhibition of human breast cancer MCF7 cell viability. In kind it is functional, cell-based.
For test [1], the target named is Histone deacetylase. Description: Inhibition of HDAC in human leukemic CEM cells. In kind it is cell-based. As to conditions: ccrf-cem.
Test [2] deals with Histone deacetylase. Description: Inhibition of HDAC in rat liver homogenate. It is filed as tissue-based.
The next test relates to CCRF-CEM. Put plainly: Inhibition of human leukemic CEM cell viability. In kind it is functional, cell-based.

In the case of `O=C(CCCCC[S+]([O-])c1ccc(Cl)cc1)NO` (centres undefined), the negative logarithm of the IC50 (pIC50) in the test with SUD4 is 5.12; in the test on HCT-116, 5.41; in the test on MCF7, 5.21.

`O=C(/C=C/C=C/CSc1ccc2ccccc2c1)NO`: the 50% inhibitory concentration (IC50) on Histone deacetylase [1] came to 9.4 µM; against Histone deacetylase [2], 0.7 µM. The same compound gave a negative logarithm of the IC50 (pIC50) with CCRF-CEM of 5.77.

For the compound `O=C(/C=C/C=C/CSc1ccc(Cl)cc1)NO`, the IC50 against Histone deacetylase [1] came out at 1.6 µM; against Histone deacetylase [2], 0.31 µM. In addition, the negative logarithm of the IC50 (pIC50) in the test with CCRF-CEM is 5.80.

As for `O=C(CCCCCSc1ccc(Cl)cc1)NO`, the half-inhibitory concentration (IC50) against Histone deacetylase [1] is over 25 µM; on Histone deacetylase [2], 0.26 µM.

For `COc1ccc([S+]([O-])C/C=C/C=C/C(=O)NO)cc1` (centres undefined), the IC50 was found to be 5.4 µM against Histone deacetylase [1] and 0.41 µM against Histone deacetylase [2]. For the same compound, the pIC50 in the test on CCRF-CEM was 5.02.

`O=C(CCCCCC[S+]([O-])c1ccc(Cl)cc1)NO` (centres undefined) had an IC50 against Histone deacetylase [2] of 0.38 µM.

As for `O=C(CCCCC[S+]([O-])c1ccccc1)NO` (centres undefined), the IC50 at Histone deacetylase [1] came to 7.7 µM; against Histone deacetylase [2], 0.06 µM.

Consider `CN(C)c1ccc([S+]([O-])CCCCCC(=O)NO)cc1` (centres undefined), for which, on Histone deacetylase [2], the half-inhibitory concentration (IC50) stood at 0.18 µM.

In turn, `O=C(CCCCCSc1ccccc1)NO` had a concentration for half-maximal inhibition (IC50) at Histone deacetylase [2] of 0.12 µM.

Regarding `O=C(/C=C/C=C/C[S+]([O-])c1ccc(Cl)cc1)NO` (centres undefined), the IC50 against Histone deacetylase [1] stood at 1.2 µM; on Histone deacetylase [2], 0.4 µM.

As to `O=C(CCCCCS(=O)(=O)c1ccccc1)NO`, on Histone deacetylase [2], the IC50 turned out to be 0.04 µM.

Take `O=C(/C=C/C=C/C[S+]([O-])c1ccccc1)NO` (centres undefined): the IC50 on Histone deacetylase [1] was over 25 µM; against Histone deacetylase [2] it was 0.24 µM.

In the case of `O=C(CCCCCSc1ccc(NS(=O)(=O)c2ccc(Cl)cc2)cc1)NO`, the concentration for half-maximal inhibition (IC50) at Histone deacetylase [2] was 0.11 µM.

In the case of `CC(/C=C/C(=O)NO)=C\C(C)Sc1ccc(N(C)C)cc1` (centres undefined), the IC50 on Histone deacetylase [1] was found to be 5.3 µM; against Histone deacetylase [2], 0.34 µM. In the test with CCRF-CEM, this compound gave a negative-log IC50 (pIC50) of 5.12.

The compound `CN(C)c1ccc2sc(/C=C/C=C/C(=O)NO)cc2c1` came in with a concentration for half-maximal inhibition (IC50) against Histone deacetylase [2] of over 25 µM.

For the compound `O=C(/C=C/C=C/CSc1ccccc1)NO`, the IC50 was over 25 µM on Histone deacetylase [1] and 0.39 µM at Histone deacetylase [2].

As for `CN(C)c1ccc(Sc2cccc(/C=C/C(=O)NO)c2)cc1`, the results for the IC50 on Histone deacetylase [1] and on Histone deacetylase [2] were 8.6 µM and 0.16 µM, respectively. In the test with CCRF-CEM, the negative logarithm of the IC50 (pIC50) was 5.47.

Broadly, the pIC50 is the negative decadic logarithm of the IC50, by convention in mol/L. Read a low pIC50 as a high IC50. As a reminder, the IC50 is the concentration needed to halve the response being measured.
